Source: patent US10434191B2, “Optical imaging probes” (THE UNIVERSITY COURT OF THE UNIVERSITY OF EDINBURGH, priority 2011, dated 2019)
Entries after “also recorded” stand apart in the source; their conditions may differ.

What was measured:
[1] = tested on: PMNs, monocytes and lymphocytes; test: Human cell specificity by live confocal imaging; type: cell-based; settings: PMNs vs monocytes vs lymphocytes
Method: Human peripheral blood leukocytes from healthy volunteers were prepared as previously described^25. Briefly, citrated blood was centrifuged at room temperature for 20 min at 350 g, and platelet-rich plasma was removed. Autologous serum was prepared by recalcification of platelet-rich plasma by addition of CaCl2 to a final concentration of 2 mM. Leukocytes were separated from erythrocytes by dextran sedimentation using 0.6% dextran T500 (Pharmacia, Milton Keynes, UK), and the leukocyte-rich upper layer was then fractionated using isotonic Percoll (Pharmacia). Neutrophils and mononuclear leukocytes (PBMC) were harvested from the 68%181% and 55/68% interfaces, respectively. In some experiments, neutrophils were labelled with DiD (Invitrogen, molecular probes) (2.5 μM) in D-PBS (w/o Ca/Mg) for 20 min at room temperature. […]
In multiple labelling experiments using IQR probes in combination with syto-85 (Invitrogen, 2.5 μM, 30 minutes, 37° C.), images were acquired sequentially. Fluorescein was excited with a dedicated 488 nm line and emitted light reflected from a NFT545 filter and passed through an LP505 filter whereas syto-85 were excited with a dedicated 543 nm line, and emitted light detected with meta detector ([…]). […]

[2] = tested on: freshly isolated human neutrophils (PMNs); test: Live time-lapse confocal imaging of probe uptake in activated human neutrophils; type: cell-based
Method: Human peripheral blood leukocytes from healthy volunteers were prepared as previously described^25. Briefly, citrated blood was centrifuged at room temperature for 20 min at 350 g, and platelet-rich plasma was removed. Autologous serum was prepared by recalcification of platelet-rich plasma by addition of CaCl2 to a final concentration of 2 mM. Leukocytes were separated from erythrocytes by dextran sedimentation using 0.6% dextran T500 (Pharmacia, Milton Keynes, UK), and the leukocyte-rich upper layer was then fractionated using isotonic Percoll (Pharmacia). Neutrophils and mononuclear leukocytes (PBMC) were harvested from the 68%181% and 55/68% interfaces, respectively. In some experiments, neutrophils were labelled with DiD (Invitrogen, molecular probes) (2.5 μM) in D-PBS (w/o Ca/Mg) for 20 min at room temperature.
A laser-scanning confocal imaging system (LSM510; Carl Zeiss, Jena, Germany), incorporating an upright Axioskop FS2 microscope (63× objective) was used for image acquisition and processing. Exposure to 488 nm light was limited to 1-6% of the maximum laser power in order to minimize photobleaching and toxicity. In all cases, images were obtained without Kalman averaging and typically with a pixel dwell time of 3.2 μs with a pinhole diameter corresponding to 1 Airy unit. In multiple-labelling experiments pinhole diameters were adjusted to give optical Z-sections of equivalent depths, corresponding to 1 Airy unit for the longest excitation wavelength. All live time-lapse imaging of was performed in IMDM. Coverslips were transferred to a thermostatted environmental stage (POC Mini) maintained at 30° C.^26. Drugs were added by bath addition. In experiments where fluorescein was examined alone, the fluorophore was excited with a dedicated 488 nm line, and emitted light reflected from a NFT545 filter and passed through an LP505 filter.
In multiple labelling experiments involving membrane (DiD, Invitrogen), or dextran-647, and IQR probes, images were obtained simultaneously. DiD or dextran-647 was excited with a dedicated 633 nm line, and emitted light detected with meta detector (650-705 nm), whereas Fluorescein was excited with a dedicated 488 nm line, and emitted light reflected from a NFT545 filter and passed through an LP505 filter.
Neutrophils and mononuclear cells (6×10^5 cells total), or PBMC-derived macrophages, were seeded onto glass coverslips pre-coated with 10 μg/ml fibronectin (Sigma). Cells were allowed to adhere and 10 μM (final concentration) IQR1.2 added to wells prior to transfer to POC mini and placement in environmental chamber. Live imaging commenced at 30 s intervals. Baseline images were acquired for 10-15 min prior to addition of A21387 (10 μM, Sigma) and live time-lapse confocal images acquired for further 20 min. Where sivelestat or dynasore was included, cells were pretreated for 10 minutes prior to imaging.

[3] = tested on: freshly isolated human neutrophils; test: In vitro Cellvizio 488 nm fibreoptic confocal imaging; type: cell-based
Method: Human neutrophils were isolated as described above and suspended in PBS with or without activating agents. A fibreoptic confocal system (488 Cellvizio) was used to acquire images in eppendorfs of cells both in the presence of free FAM and IQRs and after washing cells of free FAM and IQR in media. Imaging was performed for 60 s and representative still frames converted to bmp format.

[4] = molecular target: T1, recombinant human neutrophil elastase (HNE) (Homo sapiens, UniProt P08246); test: Fluorescent microplate reader dequenching with HNE; type: biochemical; settings: 50 uM
T1 sequence (P08246 30-267): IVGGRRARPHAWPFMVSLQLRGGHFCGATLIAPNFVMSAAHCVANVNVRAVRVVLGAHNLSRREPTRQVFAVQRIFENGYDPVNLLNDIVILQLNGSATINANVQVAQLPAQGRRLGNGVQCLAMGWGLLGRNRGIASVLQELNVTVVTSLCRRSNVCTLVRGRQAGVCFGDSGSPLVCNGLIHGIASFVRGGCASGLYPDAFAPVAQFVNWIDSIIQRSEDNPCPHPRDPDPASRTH
Method: IQR4 (0.5 uM) was incubated with of human neutrophil elastase (HNE; 11.3 ug/ml) in reaction buffer (50 mm Hepes buffer, pH 7.4, 0.75 m NaCl, 0.05% Igepal CA-630 (v/v)) with or without of sivelestat (50 uM). The timecourse of fluorescence dequenching was followed for 30 min with a fluorescence microplate reader (excitation 480/20, emission 528/25).

[5] = tested on: human neutrophil lysate; test: Fluorescent microplate reader dequenching with neutrophil lysate; type: biochemical; settings: 50 uM
Method: For experiments using neutrophil lysate, IQR4 (0.5 uM) is incubated with freeze-thawed neutrophil lysate (10×10^8 cells/ml) in IMDM with or without sivelestat (50 uM). The timecourse of fluorescence dequenching was followed for 30 min with a fluorescence microplate reader (excitation 480/20, emission 528/25).

## 5(6)-carboxyfluorescein [FAM]
[1]
  cell specificity of probe uptake/activation: Only activated PMN's internalise FAM
[2]; activated neutrophils, Dynasore pretreatment
  probe uptake after pretreatment with dynamin inhibitor Dynasore: prevented
[2]; activation with 10 μM A23187 (calcium ionophore), confocal imaging
  appearance of punctate cell-associated fluorescence: rapid appearance of punctate cell-associated fluorescence
[3]; 15 min exposure, probe in medium
  resolution of activated cells before wash: not possible to resolve activated cells
[3]; cells spun down, probe removed
  visibility of activated cells after washing: activated cells are visible

## O=C(N/N=C/c1ccc(O)c(O)c1)c1cc2ccccc2cc1O [Dynasore]
[2]; pre-treatment, probe IQR1.2
  effect on uptake of IQR1.2 by activated neutrophils: prevented
[2]; pretreatment, probe FAM
  effect on uptake of FAM by activated neutrophils: prevented
[2]; probe IQR1
  effect on cell-associated fluorescence of IQR1 in activated neutrophils: inhibited

## CC(C)(C)C(=O)Oc1ccc(S(=O)(=O)Nc2ccccc2C(=O)NCC(=O)O)cc1 [sivelestat]
[4]
  effect on HNE-induced dequenching of IQR4: inhibited; also recorded: blocked
[2]; 50 μM, pre-treatment 10 mins, A23187
  effect on punctate cell-associated fluorescence from probe IQR4 in activated neutrophils: blocked; also recorded: inhibits the appearance of this punctate cell-associated fluorescence
[5]
  effect on neutrophil lysate-induced dequenching of IQR4: blocked; also recorded: inhibited
